Here are results for 12 molecules from BindingDB's records for doi:10.1016/j.ejmech.2016.09.002 (King Fahd University of Petroleum and Minerals, 2016).

In general, IC50 refers to the concentration needed to halve the response being measured.

A short description of one assay: Inhibition of recombinant GGT1 (unknown origin) using GGPP as substrate preincubated for 5 mins followed by protein addition measured over 20 mins by fluorescence assay.
Turning to `CSCCc1c(-c2cccnc2)nn(-c2ccc(Cl)c(Cl)c2)c1OCCCNC(=O)[C@H](Cc1ccccc1)NC(C)=O`, the IC50 was 22.9 µM.

Test in a further assay: as above
This is another data set of the same source.
In the case of `COc1ccc(C[C@H](NS(C)(=O)=O)C(=O)NCCCOc2c(CCSC)c(-c3cccnc3)nn2-c2ccc(Cl)c(Cl)c2)cc1`, the half-maximal inhibitory concentration (IC50) was determined as 9.9 µM.
As to `CSCCc1c(-c2cccnc2)nn(-c2ccc(Cl)c(Cl)c2)c1OCCCNC(=O)[C@H](Cc1cccnc1)NS(C)(=O)=O`, the IC50 was over 50 µM.
Take `CSCCc1c(-c2cccnc2)nn(-c2ccc(Cl)c(Cl)c2)c1OCCCNC(=O)[C@H](Cc1ccccc1)NS(C)(=O)=O`: the IC50 came out at 31.9 µM.
Still for that read-out and setting: the figure for `CSCCc1c(-c2cccnc2)nn(-c2ccc(Cl)c(Cl)c2)c1OCCCC(=O)N[C@@H](Cc1cccnc1)C(N)=O` is 11.6 µM; for `COc1ccc(C[C@H](NC(C)=O)C(=O)NCCCOc2c(CCSC)c(-c3cccnc3)nn2-c2ccc(Cl)c(Cl)c2)cc1` it is 34.8 µM.
Regarding `CSCCc1c(-c2cccnc2)nn(-c2ccc(Cl)c(Cl)c2)c1OCCCC(=O)N[C@@H](Cc1ccccc1)C(N)=O` [N-[(S)-1-carbamoyl-2-phenylethyl]-4-[2-(3,4-di-chlorophenyl)-4-(2-methylsulfanylethyl)-5-pyridin-3-yl-2-H-pyrazol-3-yloxy]butyramide], the concentration for half-maximal inhibition (IC50) came to 3.3 µM.
On to `CSCCc1c(-c2cccnc2)nn(-c2ccc(Cl)c(Cl)c2)c1OCCCNC(=O)[C@H](Cc1cccnc1)NC(C)=O`, for which the IC50 is over 50 µM.
Turning to `CSCCc1c(-c2cccnc2)nn(-c2ccc(Cl)c(Cl)c2)c1OCCCC(=O)N[C@@H](Cc1ccncc1)C(N)=O`, the IC50 stood at 7.8 µM.
Turning to `CSCCc1c(-c2cccnc2)nn(-c2ccc(Cl)c(Cl)c2)c1OCCCC(=O)N[C@@H](Cc1ccc(F)cc1)C(N)=O`, the concentration for half-maximal inhibition (IC50) turned out to be 2.4 µM.
For the molecule `CSCCc1c(-c2cccnc2)nn(-c2ccc(Cl)c(Cl)c2)c1OCCCNC(=O)[C@H](Cc1ccc(F)cc1)NS(C)(=O)=O`, the 50% inhibitory concentration (IC50) was 19.7 µM.
Same read-out and setting: in the case of `COc1ccc(C[C@H](NC(=O)CCCOc2c(CCSC)c(-c3cccnc3)nn2-c2ccc(Cl)c(Cl)c2)C(N)=O)cc1` it was 3.1 µM.
